Results as given in PubChem BioAssay (NCI).
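Growth conditions: 96-well plates. Treatment: test compound, 48 hours, 5 concentrations. Analysis: linear interpolation between bracketing concentrations; unreached endpoints set to highest concentration. The concentration for 50% growth inhibition is given as GI50. TGI is the concentration that stops growth completely.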

Key:
Experiment in all cases: NCI tumour cell line growth inhibition, 48 h
MCF7 breast = system: MCF7 breast
RXF 393 renal = system: RXF 393 renal
HOP-62 NSCLC = system: HOP-62 NSCLC
BT-549 breast = system: BT-549 breast
UO-31 renal = system: UO-31 renal
KM12 colon = system: KM12 colon
786-0 renal = system: 786-0 renal
K-562 leukemia = system: K-562 leukemia
HCT-15 colon = system: HCT-15 colon
EKVX NSCLC = system: EKVX NSCLC
TK-10 renal = system: TK-10 renal
UACC-257 melanoma = system: UACC-257 melanoma
HT29 colon = system: HT29 colon
M14 melanoma = system: M14 melanoma
OVCAR-5 ovarian = system: OVCAR-5 ovarian
LOX IMVI melanoma = system: LOX IMVI melanoma
SK-MEL-5 melanoma = system: SK-MEL-5 melanoma
NCI-H460 lung = system: NCI-H460 lung
HCT-116 colon = system: HCT-116 colon
SNB-75 CNS = system: SNB-75 CNS
SR leukemia = system: SR leukemia
A498 renal = system: A498 renal
SK-OV-3 ovarian = system: SK-OV-3 ovarian
UACC-62 melanoma = system: UACC-62 melanoma
NCI-H226 lung = system: NCI-H226 lung
MDA-MB-435 = system: MDA-MB-435
SF-295 CNS = system: SF-295 CNS
HOP-92 NSCLC = system: HOP-92 NSCLC
SF-268 CNS = system: SF-268 CNS
HS 578T breast = system: HS 578T breast
NCI/ADR-RES ovarian = system: NCI/ADR-RES ovarian
U251 CNS = system: U251 CNS
PC-3 prostate = system: PC-3 prostate
SK-MEL-2 melanoma = system: SK-MEL-2 melanoma
A549 NSCLC = system: A549 NSCLC
SK-MEL-28 melanoma = system: SK-MEL-28 melanoma
MALME-3M melanoma = system: MALME-3M melanoma
SF-539 CNS = system: SF-539 CNS
ACHN renal = system: ACHN renal
T-47D breast = system: T-47D breast
HCC-2998 colon = system: HCC-2998 colon
OVCAR-8 ovarian = system: OVCAR-8 ovarian
CAKI-1 renal = system: CAKI-1 renal
DU-145 prostate = system: DU-145 prostate
OVCAR-3 ovarian = system: OVCAR-3 ovarian
MOLT-4 leukemia = system: MOLT-4 leukemia
MDA-MB-231 breast = system: MDA-MB-231 breast
IGROV1 ovarian = system: IGROV1 ovarian
SN12C renal = system: SN12C renal
HL-60(TB) leukemia = system: HL-60(TB) leukemia
NCI-H522 lung = system: NCI-H522 lung
NCI-H23 lung = system: NCI-H23 lung
RPMI-8226 leukemia = system: RPMI-8226 leukemia
COLO 205 colon = system: COLO 205 colon
OVCAR-4 ovarian = system: OVCAR-4 ovarian
SW-620 colon = system: SW-620 colon
SNB-19 CNS = system: SNB-19 CNS

Question: How did the TGI (MCF7 breast) turn out when `CCc1cc(Nc2nccc(-c3c(-c4ccc(OC)c(C(=O)Nc5c(F)cccc5F)c4)nc4ccccn34)n2)c(OC)cc1N1CCC(N2CCN(S(C)(=O)=O)CC2)CC1` was run?
Answer: > 100 µM

Question: And the GI50 (RXF 393 renal)?
Answer: > 47 µM

Question: What about the TGI (RXF 393 renal) of the same molecule?
Answer: > 100 µM

Question: And the GI50 (HOP-62 NSCLC)?
Answer: > 100 µM

Question: And the TGI (HOP-62 NSCLC)?
Answer: > 100 µM

Question: What about the GI50 (BT-549 breast) of the same molecule?
Answer: > 100 µM

Question: And the TGI (BT-549 breast)?
Answer: > 100 µM

Question: What about the GI50 (UO-31 renal) of the same molecule?
Answer: > 100 µM

Question: What about the TGI (UO-31 renal) of the same molecule?
Answer: > 100 µM

Question: And the GI50 (KM12 colon)?
Answer: > 100 µM

Question: And the TGI (KM12 colon)?
Answer: > 100 µM

Question: And the GI50 (786-0 renal)?
Answer: > 100 µM

Question: And the TGI (786-0 renal)?
Answer: > 100 µM

Question: What about the GI50 (K-562 leukemia) of the same molecule?
Answer: > 100 µM

Question: What about the TGI (K-562 leukemia) of the same molecule?
Answer: > 100 µM

Question: What about the GI50 (HCT-15 colon) of the same molecule?
Answer: > 100 µM

Question: What about the TGI (HCT-15 colon) of the same molecule?
Answer: > 100 µM

Question: And the GI50 (EKVX NSCLC)?
Answer: > 100 µM

Question: What about the TGI (EKVX NSCLC) of the same molecule?
Answer: > 100 µM

Question: And the GI50 (TK-10 renal)?
Answer: > 90.4 µM

Question: And the TGI (TK-10 renal)?
Answer: > 100 µM

Question: What about the GI50 (UACC-257 melanoma) of the same molecule?
Answer: > 40.1 µM

Question: What about the TGI (UACC-257 melanoma) of the same molecule?
Answer: > 100 µM

Question: What about the TGI (HT29 colon) of the same molecule?
Answer: > 100 µM

Question: What about the GI50 (M14 melanoma) of the same molecule?
Answer: > 58.1 µM

Question: What about the TGI (M14 melanoma) of the same molecule?
Answer: > 100 µM

Question: And the GI50 (OVCAR-5 ovarian)?
Answer: > 100 µM

Question: And the TGI (OVCAR-5 ovarian)?
Answer: > 100 µM

Question: And the GI50 (LOX IMVI melanoma)?
Answer: > 100 µM

Question: What about the TGI (LOX IMVI melanoma) of the same molecule?
Answer: > 100 µM

Question: What about the GI50 (SK-MEL-5 melanoma) of the same molecule?
Answer: > 64.8 µM

Question: And the TGI (SK-MEL-5 melanoma)?
Answer: > 100 µM

Question: And the GI50 (NCI-H460 lung)?
Answer: > 71.7 µM

Question: What about the TGI (NCI-H460 lung) of the same molecule?
Answer: > 100 µM

Question: And the GI50 (HCT-116 colon)?
Answer: 88.8 µM

Question: And the TGI (HCT-116 colon)?
Answer: > 100 µM

Question: And the GI50 (SNB-75 CNS)?
Answer: > 50.1 µM

Question: And the TGI (SNB-75 CNS)?
Answer: > 100 µM

Question: What about the GI50 (SR leukemia) of the same molecule?
Answer: > 100 µM

Question: And the TGI (SR leukemia)?
Answer: > 100 µM

Question: And the GI50 (A498 renal)?
Answer: > 100 µM

Question: And the TGI (A498 renal)?
Answer: > 100 µM

Question: What about the GI50 (SK-OV-3 ovarian) of the same molecule?
Answer: > 100 µM

Question: What about the TGI (SK-OV-3 ovarian) of the same molecule?
Answer: > 100 µM

Question: And the GI50 (UACC-62 melanoma)?
Answer: > 100 µM

Question: And the TGI (UACC-62 melanoma)?
Answer: > 100 µM

Question: What about the GI50 (NCI-H226 lung) of the same molecule?
Answer: > 69.3 µM

Question: What about the TGI (NCI-H226 lung) of the same molecule?
Answer: > 100 µM

Question: What about the GI50 (MDA-MB-435) of the same molecule?
Answer: > 100 µM

Question: And the TGI (MDA-MB-435)?
Answer: > 100 µM

Question: And the GI50 (SF-295 CNS)?
Answer: > 100 µM

Question: What about the TGI (SF-295 CNS) of the same molecule?
Answer: > 100 µM

Question: What about the GI50 (HOP-92 NSCLC) of the same molecule?
Answer: 1.14 µM

Question: What about the TGI (HOP-92 NSCLC) of the same molecule?
Answer: > 80 µM

Question: And the GI50 (SF-268 CNS)?
Answer: > 100 µM

Question: And the TGI (SF-268 CNS)?
Answer: > 100 µM

Question: And the GI50 (HS 578T breast)?
Answer: > 100 µM

Question: And the TGI (HS 578T breast)?
Answer: > 100 µM

Question: What about the GI50 (NCI/ADR-RES ovarian) of the same molecule?
Answer: > 100 µM

Question: What about the TGI (NCI/ADR-RES ovarian) of the same molecule?
Answer: > 100 µM

Question: And the GI50 (U251 CNS)?
Answer: > 100 µM

Question: What about the TGI (U251 CNS) of the same molecule?
Answer: > 100 µM

Question: And the GI50 (PC-3 prostate)?
Answer: > 100 µM

Question: And the TGI (PC-3 prostate)?
Answer: > 100 µM

Question: What about the GI50 (SK-MEL-2 melanoma) of the same molecule?
Answer: > 51.8 µM

Question: And the TGI (SK-MEL-2 melanoma)?
Answer: > 88.4 µM

Question: What about the GI50 (A549 NSCLC) of the same molecule?
Answer: > 48.3 µM

Question: What about the TGI (A549 NSCLC) of the same molecule?
Answer: > 100 µM

Question: And the GI50 (SK-MEL-28 melanoma)?
Answer: > 100 µM

Question: And the TGI (SK-MEL-28 melanoma)?
Answer: > 100 µM

Question: And the GI50 (MALME-3M melanoma)?
Answer: > 100 µM

Question: What about the TGI (MALME-3M melanoma) of the same molecule?
Answer: > 100 µM

Question: And the GI50 (SF-539 CNS)?
Answer: > 100 µM

Question: And the TGI (SF-539 CNS)?
Answer: > 100 µM

Question: What about the GI50 (ACHN renal) of the same molecule?
Answer: > 100 µM

Question: And the TGI (ACHN renal)?
Answer: > 100 µM

Question: And the GI50 (T-47D breast)?
Answer: > 100 µM

Question: What about the TGI (T-47D breast) of the same molecule?
Answer: > 100 µM

Question: And the GI50 (HCC-2998 colon)?
Answer: > 100 µM

Question: And the TGI (HCC-2998 colon)?
Answer: > 100 µM

Question: And the GI50 (OVCAR-8 ovarian)?
Answer: > 100 µM

Question: What about the TGI (OVCAR-8 ovarian) of the same molecule?
Answer: > 100 µM

Question: And the GI50 (CAKI-1 renal)?
Answer: > 100 µM

Question: What about the TGI (CAKI-1 renal) of the same molecule?
Answer: > 100 µM

Question: And the GI50 (DU-145 prostate)?
Answer: > 100 µM

Question: And the TGI (DU-145 prostate)?
Answer: > 100 µM

Question: And the GI50 (OVCAR-3 ovarian)?
Answer: > 100 µM

Question: And the TGI (OVCAR-3 ovarian)?
Answer: > 100 µM

Question: And the GI50 (MOLT-4 leukemia)?
Answer: > 100 µM

Question: What about the TGI (MOLT-4 leukemia) of the same molecule?
Answer: > 100 µM

Question: What about the GI50 (MDA-MB-231 breast) of the same molecule?
Answer: 44.3 µM

Question: And the TGI (MDA-MB-231 breast)?
Answer: > 100 µM

Question: And the GI50 (IGROV1 ovarian)?
Answer: > 100 µM

Question: And the TGI (IGROV1 ovarian)?
Answer: > 100 µM

Question: And the GI50 (SN12C renal)?
Answer: > 100 µM

Question: What about the TGI (SN12C renal) of the same molecule?
Answer: > 100 µM

Question: What about the GI50 (HL-60(TB) leukemia) of the same molecule?
Answer: > 100 µM

Question: What about the TGI (HL-60(TB) leukemia) of the same molecule?
Answer: > 100 µM

Question: And the GI50 (NCI-H522 lung)?
Answer: > 100 µM

Question: What about the TGI (NCI-H522 lung) of the same molecule?
Answer: > 100 µM

Question: And the GI50 (NCI-H23 lung)?
Answer: > 100 µM

Question: What about the TGI (NCI-H23 lung) of the same molecule?
Answer: > 100 µM

Question: What about the GI50 (RPMI-8226 leukemia) of the same molecule?
Answer: > 100 µM

Question: What about the TGI (RPMI-8226 leukemia) of the same molecule?
Answer: > 100 µM

Question: What about the TGI (COLO 205 colon) of the same molecule?
Answer: > 100 µM

Question: And the GI50 (OVCAR-4 ovarian)?
Answer: > 100 µM

Question: What about the TGI (OVCAR-4 ovarian) of the same molecule?
Answer: > 100 µM

Question: What about the GI50 (SW-620 colon) of the same molecule?
Answer: > 100 µM

Question: What about the TGI (SW-620 colon) of the same molecule?
Answer: > 100 µM

Question: And the GI50 (SNB-19 CNS)?
Answer: > 56.6 µM

Question: What about the TGI (SNB-19 CNS) of the same molecule?
Answer: > 100 µM
